Measurements taken from ChEMBL document CHEMBL1201862, “PubChem BioAssay data set” (2004).
Calls of active or inactive are those of the source.

How the values were obtained:
[1] = target: T1, Apoptotic protease-activating factor 1 (Homo sapiens, UniProt O14727); type: functional
T1 sequence (O14727 whole entry): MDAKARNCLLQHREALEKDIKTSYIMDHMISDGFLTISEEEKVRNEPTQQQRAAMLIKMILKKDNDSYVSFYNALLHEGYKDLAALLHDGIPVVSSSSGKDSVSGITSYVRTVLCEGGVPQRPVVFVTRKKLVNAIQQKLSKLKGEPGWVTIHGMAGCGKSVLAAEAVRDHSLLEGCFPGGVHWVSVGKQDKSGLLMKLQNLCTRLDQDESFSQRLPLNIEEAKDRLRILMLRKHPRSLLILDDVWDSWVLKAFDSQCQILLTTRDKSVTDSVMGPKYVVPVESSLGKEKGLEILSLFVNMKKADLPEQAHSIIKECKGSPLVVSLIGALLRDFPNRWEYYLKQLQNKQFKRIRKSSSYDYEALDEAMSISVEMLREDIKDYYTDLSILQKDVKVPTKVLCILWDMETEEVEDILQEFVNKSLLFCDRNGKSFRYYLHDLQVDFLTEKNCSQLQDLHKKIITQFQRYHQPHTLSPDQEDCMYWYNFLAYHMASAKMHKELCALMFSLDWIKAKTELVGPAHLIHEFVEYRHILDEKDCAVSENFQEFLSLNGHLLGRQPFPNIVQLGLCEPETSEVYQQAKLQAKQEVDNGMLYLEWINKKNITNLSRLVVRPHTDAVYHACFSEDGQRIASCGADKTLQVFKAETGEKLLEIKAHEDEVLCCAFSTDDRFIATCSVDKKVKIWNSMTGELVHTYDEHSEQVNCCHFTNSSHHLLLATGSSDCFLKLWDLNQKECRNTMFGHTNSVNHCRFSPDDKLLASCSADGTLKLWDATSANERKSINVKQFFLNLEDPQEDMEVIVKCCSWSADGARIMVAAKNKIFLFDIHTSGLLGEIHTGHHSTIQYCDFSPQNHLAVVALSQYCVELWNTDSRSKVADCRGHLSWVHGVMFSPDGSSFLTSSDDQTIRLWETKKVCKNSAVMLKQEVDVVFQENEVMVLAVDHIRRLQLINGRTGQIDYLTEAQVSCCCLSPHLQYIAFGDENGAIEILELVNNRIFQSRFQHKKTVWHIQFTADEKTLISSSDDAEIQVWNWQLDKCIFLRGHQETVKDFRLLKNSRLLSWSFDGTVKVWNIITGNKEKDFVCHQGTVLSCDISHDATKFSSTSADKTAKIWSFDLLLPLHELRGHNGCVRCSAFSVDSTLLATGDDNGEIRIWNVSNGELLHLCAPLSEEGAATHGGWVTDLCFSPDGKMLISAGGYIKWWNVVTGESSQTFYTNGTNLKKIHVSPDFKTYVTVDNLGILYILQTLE

[2] = target: T2, Calpain-2 catalytic subunit (Sus scrofa, UniProt P43367); assay: m-calpain protease blockers, concentration series – biochemical, fluorogenic peptide substrate, dose response (AID 1420); type: functional
T2 sequence (P43367 whole entry): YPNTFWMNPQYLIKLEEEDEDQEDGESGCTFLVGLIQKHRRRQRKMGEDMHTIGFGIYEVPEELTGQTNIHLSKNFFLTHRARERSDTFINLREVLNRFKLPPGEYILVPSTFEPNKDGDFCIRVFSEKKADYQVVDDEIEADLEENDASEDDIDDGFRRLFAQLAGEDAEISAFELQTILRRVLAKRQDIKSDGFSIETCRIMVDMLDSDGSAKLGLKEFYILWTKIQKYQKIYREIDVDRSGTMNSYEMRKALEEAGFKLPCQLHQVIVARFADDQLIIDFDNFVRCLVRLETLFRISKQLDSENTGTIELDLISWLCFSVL

[3] = target: T3, Polyadenylate-binding protein 1 (Homo sapiens, UniProt P11940); assay: MLLE binding blockers, Cy5 peptide tracer – biochemical, fluorescence polarization, Cy5-PAM2 peptide, secondary, miRNA deadenylation inhibitor project, dose response (AID 602260); type: functional; settings: read-out: IC50_Mean
T3 sequence (P11940 whole entry, the tested form may be a part): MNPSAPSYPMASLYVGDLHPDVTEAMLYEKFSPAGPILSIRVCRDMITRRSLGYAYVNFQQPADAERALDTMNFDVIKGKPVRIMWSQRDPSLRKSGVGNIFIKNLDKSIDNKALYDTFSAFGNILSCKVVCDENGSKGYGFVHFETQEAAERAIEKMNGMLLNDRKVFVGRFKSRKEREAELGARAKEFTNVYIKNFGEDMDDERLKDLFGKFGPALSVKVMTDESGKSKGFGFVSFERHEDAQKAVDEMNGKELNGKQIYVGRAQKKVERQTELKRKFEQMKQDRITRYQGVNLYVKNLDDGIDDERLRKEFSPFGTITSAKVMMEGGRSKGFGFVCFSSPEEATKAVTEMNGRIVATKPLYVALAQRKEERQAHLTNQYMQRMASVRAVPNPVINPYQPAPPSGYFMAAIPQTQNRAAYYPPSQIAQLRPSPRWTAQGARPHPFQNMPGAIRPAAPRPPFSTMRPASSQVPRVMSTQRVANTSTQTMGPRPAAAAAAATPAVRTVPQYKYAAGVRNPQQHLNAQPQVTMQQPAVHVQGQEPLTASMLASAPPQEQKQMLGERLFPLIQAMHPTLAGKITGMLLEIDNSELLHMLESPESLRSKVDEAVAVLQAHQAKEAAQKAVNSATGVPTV

[4] = target: T3, Polyadenylate-binding protein 1; assay: MLLE domain peptide-binding blockers, IC50 – biochemical, fluorescence polarization, FITC-PAM2 peptide, dose response (AID 602259); type: functional; settings: read-out: IC50_Mean
[5] = target: T4, Oxysterols receptor LXR-beta (Homo sapiens, UniProt P55055); type: functional, cell-based;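 also: agonist activity at LXR measured by a cell-based luminescence readout across a dose range, run as a counterscreen for daf-12 agonists; HEK293 cells with Gal4-LXR fusion and GAL4-driven luciferase reporter; potency for activation of Gal4-LXR reporter so compounds are agonists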
T4 sequence (P55055 whole entry): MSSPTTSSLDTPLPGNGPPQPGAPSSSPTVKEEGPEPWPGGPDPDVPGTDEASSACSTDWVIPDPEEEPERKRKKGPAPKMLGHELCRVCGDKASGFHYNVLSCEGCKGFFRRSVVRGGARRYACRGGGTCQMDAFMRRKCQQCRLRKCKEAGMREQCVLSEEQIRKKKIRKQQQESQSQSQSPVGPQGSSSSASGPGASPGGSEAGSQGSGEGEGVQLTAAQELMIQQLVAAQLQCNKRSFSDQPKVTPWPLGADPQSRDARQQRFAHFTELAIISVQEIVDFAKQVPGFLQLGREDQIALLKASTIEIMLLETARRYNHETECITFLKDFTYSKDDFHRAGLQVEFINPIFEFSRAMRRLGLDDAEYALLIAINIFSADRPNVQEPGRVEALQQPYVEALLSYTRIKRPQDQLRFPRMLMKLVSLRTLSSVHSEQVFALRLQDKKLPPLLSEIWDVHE

[6] = microbe, parasite or virus in culture; type: functional; settings: Mycobacterium tuberculosis
[7] = target: T5, Ubiquitin-conjugating enzyme E2 N (Homo sapiens, UniProt P61088); type: functional;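 also: Dose-response confirmation in a TR-FRET assay detecting UBC13-driven polyubiquitin chain formation, inhibition measured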
T5 sequence (P61088 whole entry): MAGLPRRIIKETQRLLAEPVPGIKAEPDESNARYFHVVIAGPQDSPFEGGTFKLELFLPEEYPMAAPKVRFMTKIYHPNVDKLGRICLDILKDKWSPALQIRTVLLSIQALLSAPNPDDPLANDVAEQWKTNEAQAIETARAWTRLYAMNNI

[8] = off-target signal loss in HeLa-CEM21 co-culture – HeLa F-luc CTL cells, cherry-picked, counter-screen for HIV-1 Env fusion inhibitor project, dose response (AID 652040); type: functional, cell-based;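 also: potency for signal decrease marking cytotoxic or nonspecific inhibition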
[9] = blockers of HIV-1 envelope-mediated cell-cell fusion – cherry-pick, dose response (AID 652057); type: functional, cell-based
[10] = HIV-1 AD8 envelope cell-cell fusion blockers – cherry-pick, dose response (AID 652062); type: functional, cell-based;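 also: luciferase signal from cell-cell fusion driven by HIV-1 clade B AD8 Env; potency is for inhibitors of fusion seen as a drop in luminescence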
[11] = blockers of HIV-1 ZM109 envelope-driven cell-cell fusion – HeLa effector, CEM target cells, luciferase, cherry-pick, dose response (AID 652058); type: functional, cell-based;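 also: luciferase signal from HIV-1 Env mediated cell-cell fusion of effector and target cells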
H4 = assay: Luminescence Cell-Based Dose Response HTS to Identify Activators of 5'UTR Stem-Loop Driven Prion Protein mRNA Translation in H4 Neuroglioblastoma Cells. [Related pubchem assays: 1829 (Project Summary), 1814 (Primary HTS)]; type: functional; settings: Homo sapiens
Fatty acid synthase [12] = target: T6, Fatty acid synthase (Homo sapiens, UniProt P49327); assay: inhibition of human FAS-TE enzyme activity – biochemical, endpoint fluorescence intensity, uHTS hits, dose response (AID 624327); type: functional;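 also: fluorescence from hydrolysis of an O-methyl fluorescein acyl ester substrate by the enzyme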
T6 sequence (P49327 whole entry): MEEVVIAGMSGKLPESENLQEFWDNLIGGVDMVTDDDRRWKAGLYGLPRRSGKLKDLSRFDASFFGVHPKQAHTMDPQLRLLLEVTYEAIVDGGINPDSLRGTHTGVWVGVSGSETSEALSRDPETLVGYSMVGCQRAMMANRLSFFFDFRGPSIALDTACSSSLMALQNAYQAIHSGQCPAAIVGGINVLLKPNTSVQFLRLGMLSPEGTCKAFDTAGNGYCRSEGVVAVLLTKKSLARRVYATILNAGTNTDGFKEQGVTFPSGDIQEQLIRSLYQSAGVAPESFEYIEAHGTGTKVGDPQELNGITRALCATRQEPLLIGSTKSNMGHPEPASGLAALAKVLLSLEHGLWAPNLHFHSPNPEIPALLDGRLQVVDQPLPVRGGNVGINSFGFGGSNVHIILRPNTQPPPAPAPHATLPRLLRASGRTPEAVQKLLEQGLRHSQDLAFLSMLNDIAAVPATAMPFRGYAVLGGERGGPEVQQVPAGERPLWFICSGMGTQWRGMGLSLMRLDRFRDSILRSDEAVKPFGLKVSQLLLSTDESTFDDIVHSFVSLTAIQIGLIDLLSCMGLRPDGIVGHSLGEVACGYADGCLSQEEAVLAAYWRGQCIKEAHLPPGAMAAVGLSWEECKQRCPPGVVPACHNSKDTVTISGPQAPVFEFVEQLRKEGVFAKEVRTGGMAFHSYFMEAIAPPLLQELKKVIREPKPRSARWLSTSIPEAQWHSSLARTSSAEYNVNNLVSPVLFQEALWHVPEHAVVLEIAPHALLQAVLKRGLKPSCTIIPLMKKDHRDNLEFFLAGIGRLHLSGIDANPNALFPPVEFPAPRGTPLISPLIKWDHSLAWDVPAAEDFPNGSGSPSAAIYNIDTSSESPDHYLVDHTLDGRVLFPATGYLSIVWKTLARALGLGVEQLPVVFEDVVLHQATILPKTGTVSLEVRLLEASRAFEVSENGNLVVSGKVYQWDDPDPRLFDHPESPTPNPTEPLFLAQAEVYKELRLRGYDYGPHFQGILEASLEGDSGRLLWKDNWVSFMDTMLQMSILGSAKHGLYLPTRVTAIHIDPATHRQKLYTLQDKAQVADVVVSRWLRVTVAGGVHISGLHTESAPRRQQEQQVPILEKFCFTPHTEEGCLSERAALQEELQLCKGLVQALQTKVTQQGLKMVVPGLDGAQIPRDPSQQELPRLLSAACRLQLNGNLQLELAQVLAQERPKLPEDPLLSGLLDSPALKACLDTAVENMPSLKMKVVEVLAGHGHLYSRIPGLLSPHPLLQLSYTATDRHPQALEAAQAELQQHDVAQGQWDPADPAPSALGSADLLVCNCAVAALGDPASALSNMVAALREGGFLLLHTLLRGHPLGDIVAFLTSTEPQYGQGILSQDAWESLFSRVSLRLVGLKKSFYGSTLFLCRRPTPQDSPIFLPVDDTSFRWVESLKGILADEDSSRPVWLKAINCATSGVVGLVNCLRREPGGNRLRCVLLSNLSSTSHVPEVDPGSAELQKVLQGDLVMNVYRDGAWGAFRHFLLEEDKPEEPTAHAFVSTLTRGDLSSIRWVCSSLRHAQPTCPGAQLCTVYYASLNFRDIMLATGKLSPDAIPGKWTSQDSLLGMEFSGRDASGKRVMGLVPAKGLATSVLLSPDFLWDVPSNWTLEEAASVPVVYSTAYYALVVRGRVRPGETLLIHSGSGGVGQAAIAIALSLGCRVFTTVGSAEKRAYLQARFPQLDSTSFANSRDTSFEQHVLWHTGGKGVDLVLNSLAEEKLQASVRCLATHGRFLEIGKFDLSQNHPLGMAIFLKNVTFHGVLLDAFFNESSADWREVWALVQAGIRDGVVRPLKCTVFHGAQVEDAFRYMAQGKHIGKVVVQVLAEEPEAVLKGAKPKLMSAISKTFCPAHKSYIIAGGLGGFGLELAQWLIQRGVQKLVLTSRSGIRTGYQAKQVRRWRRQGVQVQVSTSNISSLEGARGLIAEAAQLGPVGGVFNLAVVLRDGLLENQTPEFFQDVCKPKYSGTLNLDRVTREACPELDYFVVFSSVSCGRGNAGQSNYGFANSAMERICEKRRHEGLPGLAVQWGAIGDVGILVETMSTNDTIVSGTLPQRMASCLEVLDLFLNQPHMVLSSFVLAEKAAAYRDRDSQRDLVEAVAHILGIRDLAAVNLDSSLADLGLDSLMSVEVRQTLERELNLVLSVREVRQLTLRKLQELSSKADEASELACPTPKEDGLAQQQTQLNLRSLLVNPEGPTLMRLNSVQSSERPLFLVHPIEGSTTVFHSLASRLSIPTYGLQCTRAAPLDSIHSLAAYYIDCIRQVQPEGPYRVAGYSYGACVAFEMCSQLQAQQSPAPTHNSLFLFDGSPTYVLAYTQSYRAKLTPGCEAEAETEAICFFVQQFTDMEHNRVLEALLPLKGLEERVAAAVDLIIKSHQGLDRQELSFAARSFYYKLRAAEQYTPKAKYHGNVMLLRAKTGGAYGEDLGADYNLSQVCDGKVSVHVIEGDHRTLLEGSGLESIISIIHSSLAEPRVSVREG

Fatty acid synthase [13] = target: T6, Fatty acid synthase; assay: inhibition of human FAS-TE enzyme activity – biochemical, kinetic fluorescence intensity, dose response (AID 624326); type: functional;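 also: rate of fluorescence rise from hydrolysis of a fluorogenic O-methyl fluorescein ester substrate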
Streptokinase A = target: T7, Streptokinase A (Streptococcus pyogenes serotype M1, UniProt P10520); assay: viability-normalized secreted streptokinase activity reduction – plasminogen activation absorbance, OD405, dose response (AID 1914); type: functional, Streptococcus pyogenes M1 GAS;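 also: secreted streptokinase activity via plasminogen activation per viability signal from cell pellet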
T7 sequence (P10520 whole entry): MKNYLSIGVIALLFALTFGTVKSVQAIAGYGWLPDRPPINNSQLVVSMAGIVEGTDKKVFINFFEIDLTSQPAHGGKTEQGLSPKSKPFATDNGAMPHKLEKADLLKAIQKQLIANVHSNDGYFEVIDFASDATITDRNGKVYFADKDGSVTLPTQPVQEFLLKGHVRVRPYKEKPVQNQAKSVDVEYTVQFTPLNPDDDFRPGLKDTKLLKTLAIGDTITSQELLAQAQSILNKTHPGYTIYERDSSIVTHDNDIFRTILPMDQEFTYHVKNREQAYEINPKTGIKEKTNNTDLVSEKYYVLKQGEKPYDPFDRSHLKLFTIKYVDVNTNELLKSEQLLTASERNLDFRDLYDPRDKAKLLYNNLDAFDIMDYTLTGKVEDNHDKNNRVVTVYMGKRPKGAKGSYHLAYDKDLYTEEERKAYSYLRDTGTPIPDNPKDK

[14] = NIH3T3 cell viability loss – ATP luminescence, mouse fibroblasts, counter-screen, dose response (AID 2010); type: functional, cell-based;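 also: cells exposed to compound for about 90 hours before reading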
[15] = Trypanosoma cruzi growth suppression in host cells – NIH3T3 host cells, beta-gal luminescence, confirmation (AID 2044); type: functional, cell-based;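 also: intracellular parasites grown in NIH/3T3 mouse fibroblasts as host cells; luminescent beta-galactosidase reporter signal from transgenic T. cruzi replicating inside host cells; inhibitors lower the luminescence signal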
Streptococcus = assay: GAS UMAA2166 growth inhibition – luminescence, BacTiterGlo, counter-screen for streptokinase expression inhibitor project, dose response (AID 1915); type: functional, organism-based;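 also: potency for reduction of bacterial viability or growth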
[16] = system: Streptococcus sp. 'group A'; assay: Streptococcus pyogenes SK(-)GAS viability under kanamycin – luminescence, BacTiterGlo, confirmation, counter-screen for streptokinase expression inhibitor project, dose response (AID 1900); type: functional, organism-based
[17] = NIH-3T3 fibroblast cytotoxicity, dose response, cytotoxicity control, cell-based, fluorescence, Alamar Blue, secondary assay (AID 2327); type: functional;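 also: NIH-3T3 mouse fibroblasts cultured with fluconazole at 8 µg/mL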

Compound: CN(C)S(=O)(=O)c1ccc2oc(SCC(=O)Nc3ccccc3F)nc2c1
- IC50 [1]: 7.98 µM (active)

Compound: Fc1ccccc1COc1ccc(Br)cc1CNCc1ccncc1
- IC50 [2]: > 50 µM (not active)

Compound: Nc1nc(-c2cccc(F)c2)cs1
- IC50 [3]: > 66 µM (inactive)
- IC50 [4]: > 66 µM (inactive)

Compound: CN(c1ccccc1)S(=O)(=O)c1cccc(C(=O)NC2CCCCC2)c1
- IC50 [3]: > 66 µM (inactive)
- IC50 [4]: > 66 µM (inactive)

Compound: CCN(CC(=O)Nc1ccccc1OC)C(=O)c1ccccc1Sc1ccccc1C#N
- IC50 [1]: > 100 µM (inactive)

Compound: CCOC(=O)N1CCC(NC(=O)c2cc3ccccn3n2)CC1
- EC50 [5]: > 67.5 µM (inactive)

Compound: O=C(C1=C[C@@H](c2csc3ccccc23)C[C@@H](OCCCCO)O1)N1CCN(Cc2ccc3c(c2)OCO3)CC1
- CC50 [6]: > 40 µM (active)

Compound: C=CCN(CC=C)Cc1nc(N)nc(Nc2ccccc2C)n1
- IC50 [2]: < 0.4 µM (not active)

Compound: Cc1cc(NC(=S)N(Cc2ccc(Br)cc2)Cc2ccc(C(=O)O)cc2)ccc1Cl
- IC50 [2]: 4.69 µM (not active)

Compound: COc1ccc(C[C@H]2CN3C(=NC[C@H]3Cc3ccccc3)N2CCNC(=O)c2ccc(C)c(Br)c2)cc1
- IC50 [1]: > 100 µM (inactive)
- IC50 [7]: > 20 µM (inactive)

Compound: CCc1nnc(NS(=O)(=O)c2ccc(NC(=S)NC(=O)c3ccc(Br)cc3)cc2)s1
- IC50 [2]: 6.7 µM (active)

Compound: COc1cc2c(c(OCC(=O)NC(C)C)c1)C(=O)O[C@@H](C)CCCC(=O)CCCCC2
- IC50 [3]: > 66 µM (inactive)
- IC50 [4]: 63.7 µM (inactive)
- AC50 [8]: 5.78 µM (active)
- AC50 [9]: 4.35 µM (active)
- AC50 [10]: 11.3 µM (active)
- AC50 [11]: 4.75 µM (active)

Compound: Cc1cc(C(=O)NC2CCCCC2)c(C)n1-c1ccc(F)cc1
- EC50 [5]: > 67.5 µM (inactive)
- EC50 (H4): 0.455 µM (active)

Compound: CCOc1ccc(NC(=S)NC(=O)c2cccnc2)c([N+](=O)[O-])c1
- IC50 [3]: > 66 µM (inactive)
- IC50 [4]: > 66 µM (inactive)

Compound: Cn1c(-c2ccc(F)cc2)cnc1NCc1cccc([N+](=O)[O-])c1
- IC50 (Fatty acid synthase [12]): 5.28 µM (active)
- IC50 (Fatty acid synthase [13]): 9.83 µM (active)

Compound: COc1ccc2[nH]c(C(=O)Nc3cccc(C)n3)cc2c1
- EC50 [5]: > 67.5 µM (inactive)

Compound: COCCN(C(=O)CSc1ccc2c(c1)OCCO2)c1c(N)n(CC(C)C)c(=O)[nH]c1=O
- IC50 [3]: > 66 µM (inactive)
- IC50 [4]: > 66 µM (inactive)

Compound: CS(=O)(=O)c1ccc(-c2csc(-c3cccnc3)n2)cc1
- IC50 (Fatty acid synthase [12]): 10.3 µM (active)
- IC50 (Fatty acid synthase [13]): 7.66 µM (active)

Compound: Cc1cc(C)nc(-n2nc(C)c(Sc3ccc(F)cc3)c2N)n1
- EC50 (Streptokinase A): > 150 µM (not active)
- EC50 [14]: > 60 µM (not active)
- EC50 [15]: 2.01 µM (active)
- EC50 (Streptococcus): > 150 µM (not active)
- EC50 [16]: > 150 µM (not active)
- EC50 [5]: > 67.5 µM (inactive)

Compound: CCN(CC(O)Cn1c2ccccc2c2ccccc21)S(=O)(=O)c1ccc(C)cc1 (stereo not drawn)
- IC50 [2]: 2.61 µM (not active)

Compound: Cc1cc(C(=O)NC2=NCCS2)cs1
- EC50 [5]: > 67.5 µM (inactive)

Compound: CN(C1CCCCC1)S(=O)(=O)c1ccc(NC(=S)NC(=O)c2cccs2)cc1
- IC50 [3]: > 66 µM (inactive)
- IC50 [4]: > 66 µM (inactive)

Compound: Cc1cc(-c2ccncc2)n2ncc(-c3ccccc3)c2n1
- EC50 [5]: > 67.6 µM (inactive)

Compound: COc1ccc(/C=N/OCC(=O)Nc2ccc3c(c2)OCO3)c(OC)c1
- IC50 [2]: > 50 µM (not active)

Compound: Cc1cc(C(=O)OCC(=O)Nc2cccc([N+](=O)[O-])c2)c(C)o1
- IC50 (Fatty acid synthase [12]): 9.82 µM (active)
- IC50 (Fatty acid synthase [13]): 17.2 µM (active)

Compound: Cc1cc(C)n2c(NC3CCCC3)c(-c3cc4ccccc4o3)nc2n1
- EC50 [5]: > 67.5 µM (inactive)

Compound: O=C(CCCN1C(=O)c2ccccc2C1=O)C1=C(NCCO)CC(c2ccccc2)CC1=O (stereo not drawn)
- EC50 [17]: > 150 µM (inactive)
- IC50 [2]: 30.4 µM (not active)
